The values below come from EPA's ToxValDB 9.5.

For data set [1], the system named is Monkey. The note with it: duration: 13 weeks, oral, flavoured beverage, F, Cynomolgus, Estrogenic effects on maturation of vaginal epithelial cells.
Data set [2] deals with Rattus norvegicus. As to conditions: subchronic; inhalation; M/F; sedation.
Data set [3] concerns Oryctolagus sp. As to conditions: subchronic; inhalation; M/F; sedation.
Data set [4] relates to Rattus norvegicus. As to conditions: subchronic, oral.
Data set [5] relates to Oryctolagus sp. The data set is described as follows: LC60; higher = less toxic. As to conditions: acute; oral.
In data set [6] the test system is Rattus norvegicus. The note with it: for LD50 / LC50: acute; for LD50 / LOAEL / NOAEL: oral.
In data set [7] the test system is Rattus norvegicus. Briefly: LD0; higher = less toxic. The note with it: acute; dermal; semiocclusive; Sprague-Dawley.
Data set [8] relates to Oryctolagus sp. Briefly: LD0; higher = less toxic. As to conditions: acute; dermal; semiocclusive; New Zealand.
In data set [9] the test system is Oryctolagus sp. The data set is described as follows: LD40; higher = less toxic. As to conditions: acute; dermal; occlusive.
Data set [10] concerns Mus musculus. The note with it: subchronic; inhalation; M/F; mortality.
Data set [11] deals with Mus musculus. Briefly: FEL; higher = less toxic. The note with it: subchronic; inhalation; M/F; mortality.
The test system of data set [12] is Mus musculus. As to conditions: chronic, duration: 92 days, inhalation, intermittent.
Data set [13] deals with Rattus norvegicus. The note with it: chronic; duration: 2 years; oral; drinking water; M/F; Fischer 344; neurotoxicity.
Data set [14] relates to Mus musculus. The note with it: chronic; duration: 2 years; oral; drinking water; M/F; B6C3F1; Hardarian gland & lung tumors (males).
Data set [15] has as its system Mus musculus. As to conditions: oral, gavage.
The subject of the next data set is Canidae. The note with it: short-term; duration: 22 days; oral; Beagle.
Data set [16] relates to Monkey. The note with it: chronic; duration: 363 days; oral; diet.
Data set [17] relates to Rattus norvegicus. As to conditions: subchronic; duration: 90 days; oral; drinking water; M/F; Fischer 344; neurological.
For data set [18], the system named is Rattus norvegicus. As to conditions: subchronic; oral; gavage; M/F; Fischer 344; Deaths + Clinical Observation: Nasal and eye discharge Lacrimation Salivation Tremors + Functional Observational Battery: Lacrimation or ….
Data set [19] relates to Mus musculus. The data set is described as follows: LD100; higher = less toxic. The note with it: acute; oral; TAC:SWfBr.
Where [20] appears, read: short-term, duration: 28 days, gavage, Sprague-Dawley.
The mark [21] stands for this setting: reproduction developmental, duration: 10 weeks, drinking water, F, Fischer 344.
The mark [22] stands for this setting: reproduction developmental, duration: 10 weeks, drinking water, M, Fischer 344.
Where [23] appears, read: reproduction developmental, duration: 80 days, drinking water, Long-Evans.
[24] abbreviates: subchronic, duration: 13 weeks, gavage, Fischer 344.

≈ marks a conversion by molar mass, not a printed value. Where “and” joins values, the source holds several entries; their conditions need not be identical. Equal entries are not always repeated.

As for `CC1CCCC(O)CCCCCc2cc(O)cc(O)c2C(=O)O1` (centres undefined), the NOEL in the data set on Monkey [1] and with Monkey [1] (subchronic) was 0.05 mg/kg-day each time.
A word on the LOAEL: it is the lowest dose or exposure tested at which an adverse effect was seen. Broadly, the NOAEL is the highest dose or exposure tested at which no adverse effect was seen. As to `COCC(C)O` (centres undefined) [1-Methoxy-2-propanol], in the data set with Rattus norvegicus [2], the LOAEL was found to be 11100 mg/m3 and the NOAEL stood at 3680 mg/m3. In the data set with Oryctolagus sp. [3], the lowest-observed-adverse-effect level (LOAEL) was determined as 11100 mg/m3 and the NOAEL is 3680 mg/m3. Moreover, the NOEL with Rattus norvegicus [4] (duration: 35 days, gavage, Kidney: Histopathology + Liver: Histopathology) was 947 mg/kg-day.
The term LD50 denotes the dose at which mortality reaches 50%. In the data set on Oryctolagus sp. [5], `Cc1ccc(C)c(O)c1` [2,5-Dimethylphenol] had an LC60 of 938 mg/kg. The molecule further returned an LD50 with Rattus norvegicus [6] of 444 mg/kg.
What is called LC50 is the concentration lethal to half of the exposed cells or organisms. In the case of `O=[N+]([O-])C(CO)(CO)CO` [2-(Hydroxymethyl)-2-nitro-1,3-propanediol], the LD0 is above 5000 mg/kg in the data set on Rattus norvegicus [7] and above 2000 mg/kg in the data set on Oryctolagus sp. [8]. For the same molecule, the LC50 was 2.4 µg/mL (≈ 15.9 µM) with Rattus norvegicus [6] (Inhalation, Sprague-Dawley) and above 2.12 µg/mL with Rattus norvegicus [6] (inhalation, particle, Sprague-Dawley). In the data set on Rattus norvegicus [6] (gavage), the LD50 is ≥ 990 mg/kg and ≤ 1000 mg/kg.
As for `N#Cc1cccnc1` [3-Pyridinecarbonitrile], the LD50 with Rattus norvegicus [6] (gavage, Sprague-Dawley) is 1460 mg/kg and 1480 mg/kg. The LD50 in the data set on Rattus norvegicus [6] (gavage, Wistar) was found to be 1100 mg/kg. Besides, in the data set on Rattus norvegicus [6] (setting [20]), the LOAEL is 30 mg/kg-day and the NOAEL amounted to 5 mg/kg-day. Also, in the data set with Oryctolagus sp. [9], the LD40 was ≥ 2000 mg/kg and ≤ 4000 mg/kg.
As to `CC#N` [Acetonitrile], the NOAEL in the data set with Mus musculus [10] was determined as 336 mg/m3; in the data set with Mus musculus [12] (Blood: Decreased hematocrit + Erythrocytes: Decreased cell count + Liver: Hepatic lesions), 168 mg/m3; in the data set with Mus musculus [12] (Liver: Increased relative weight) it was 168 mg/m3. The molecule also gave an FEL in the data set with Mus musculus [11] of 672 mg/m3.
For `C=CC(N)=O` [Acrylamide], the NOAEL in the data set on Rattus norvegicus [13] was 0.67 mg/kg-day and 1.88 mg/kg-day; in the data set on Rattus norvegicus [6] (chronic, duration: 93 days, drinking water, Fischer 344), 0.2 mg/kg-day; in the data set with Rattus norvegicus [6] (chronic, drinking water, Fischer 344) it was 0.1 mg/kg-day; with Rattus norvegicus [6] (developmental, gavage, Sprague-Dawley / Mice: Swiss), 15 mg/kg-day; in the data set on Rattus norvegicus [6] (setting [21]), 0.5 mg/kg-day; in the data set on Rattus norvegicus [6] (reproduction developmental, duration: 10 weeks, drinking water, Long-Evans, generation: F0), 5 mg/kg-day. Moreover, the NOAEL amounted to 0.5 mg/kg-day in the data set with Rattus norvegicus [6] (setting [22]); 1.5 mg/kg-day in the data set with Rattus norvegicus [6] (setting [23]); 0.5 mg/kg-day in the data set with Rattus norvegicus [6] (reproduction developmental, drinking water, Fischer 344, generation: F0); 2 mg/kg-day in the data set with Rattus norvegicus [6] (reproduction developmental, drinking water, Fischer 344, generation: F1); 2 mg/kg-day in the data set with Rattus norvegicus [6] (reproduction developmental, drinking water, Fischer 344, generation: F2); 2.5 mg/kg-day in the data set on Rattus norvegicus [6] (reproduction developmental, gavage, F, Sprague-Dawley / Mice: Swiss). Moreover, the NOAEL is ≥ 4.1 mg/kg-day and ≤ 4.3 mg/kg-day in the data set with Rattus norvegicus [6] (short-term, duration: 28 days, drinking water, Fischer 344); 5 mg/kg-day in the data set with Rattus norvegicus [6] (setting [24]); 15 mg/kg-day in the data set on Mus musculus [15] (developmental, Swiss); 2.5 mg/kg-day in the data set with Mus musculus [15] (reproduction developmental, F, Swiss); 5 mg/kg-day in the data set with Canidae; ≥ 1 mg/kg-day and ≤ 3 mg/kg-day in the data set with Monkey [16]. Besides, in the data set with Rattus norvegicus [17], the NOAEL came out at 0.2 mg/kg-day. The molecule further displayed an LOEL in the data set with Mus musculus [14] of 1.05 mg/kg-day. Moreover, the values for the LOAEL in the data set with Rattus norvegicus [6] (setting [21]), in the data set with Rattus norvegicus [6] (setting [22]) and in the data set on Rattus norvegicus [6] (setting [23]) were 2 mg/kg-day, 2 mg/kg-day and 2.8 mg/kg-day, respectively. In the data set on Rattus norvegicus [4] (duration: 90 days, drinking water, Nerve: Damage), this molecule came in with an NOEL of 0.2 mg/kg-day.
With `C[N+](C)(C)Cc1ccccc1.[Cl-]` [Benzyltrimethylammonium chloride], in the data set with Rattus norvegicus [6] (gavage, Fischer 344), the LD50 turned out to be 180 mg/kg. Further, the NOAEL with Rattus norvegicus [6] (short-term, duration: 28 days, Crj:CD) was found to be 30 mg/kg-day; in the data set with Rattus norvegicus [6] (short-term, duration: 28 days, F, Crj:CD) it was 60 mg/kg-day; in the data set on Rattus norvegicus [6] (setting [24]) it was 25 mg/kg-day; in the data set with Mus musculus [15] (subchronic, duration: 13 weeks, B6C3F1), 25 mg/kg-day. In addition, the NOEL in the data set on Rattus norvegicus [18] is below 12.5 mg/kg-day. This molecule also yielded an LD100 in the data set with Mus musculus [19] of 1600 mg/kg.
